From US6740680B1, “Pharmaceutical compositions to tetrac and methods of use thereof” (Becton Pharma, Inc., priority 1999, dated 2004)
Where two headings read alike, the source gives them in different places. Blank lines part the entries; values can stand above or below the compound they belong to.

Legend:
Cynomologus monkeys = system: Cynomologus monkeys
Method: Preparation of Tetrac for injection. Tetrac from Rhône-Poulenc and Henning Laboratory were compared. Tetrac powder was dissolved in sterile 0.1 N NaOH at 2 mg/ml. This solution was made before the beginning of each treatment period and stored at 4° C. in polypropylene tubes, protected from light. Each solution for injection was prepared daily after dilution in the vehicle (0.9% NaCl) containing 5% monkey serum (v/v), and was stored at room temperature and protected from light, according to the storage conditions of the test substance.
Animals. One male and one female purpose bred Cynomologus monkeys Macaca fascicularis were supplied by Centre de Recherches Primatologiques, Port Louis, Mauritius. […] The animals were individually housed in stainless steel cages and a metallic tray was placed under each cage in order to collect urine. The animals were fed daily with approximately 200 grams each of U.A.R. 107 C pelleted diet (batch Nos. 61106, 61207 and 70317, U.A.R., Villemoisson-sur-Orge, France), distributed about 2 hours after treatment with Tetrac. No contaminants were known to have been present in the diet, drinking water or bedding material at levels which may be expected to have interfered with or prejudiced the outcome of the study.
Weeks 1 to 3 and weeks 7 to 9: the animals received the test substance TETRAC provided either by Rhone-Poulenc or by Henning Laboratories over a three-week period.
Weeks 4 to 6 and weeks 10 to 12: a washout period of three weeks was observed.
Administration of Tetrac. Tetrac was administered via intramuscular injection into the thigh muscle once a day, at approximately the same time each day, several days a week over a three week period. The quantity of tetrac administered to each animal was adjusted according to the most recently recorded body weight. A constant dosage-volume of 0.5 ml/kg was used.
Morbidity and mortality. The animals were checked at least twice a day, for mortality and signs of morbidity.
Body weight. Body weight was recorded for each animal once before the beginning of the treatment period, on the first day of the treatment period, and at least once a week until the end of the study.
Food consumption. Food consumption was estimated for each animal by calculating the difference between the quantity given and that remaining the next morning. This was estimated daily during the week before treatment and throughout the study. Food consumption was expressed as a percentage of the quantity given. Whenever fasting was required, the food was removed at the end of the day and the estimation of consumption was made at that time, food being made available for approximately five hours on that day.

α-MHC mRNA = test: Northern blot, α-MHC mRNA in heart; assay type: in vivo, rat
Method: (§1) Seventy-nine male SIVZ rats were purchased from the breeder (Institut für Labortierkunde des Universität Zürich, Zürich, Switzerland). They were rendered hypothyroid by a single injection of [^131I]Na (100 μCi/rat) and before and throughout the experiment 0.02% 2-mercapto-1-methylimidazol (MMI) was added to drinking water. In order to have an euthyroid control group of similar weight and identical age, 10 rats received only MMI in the drinking water and 2 weeks before implanting the minipumps, MMI was withdrawn. Osmotic minipumps (secretion rate 0.25 μl/hour, duration 14 days) were implanted intraperitoneally (i.p.) 2 months after the injection of [^131I]Na. The minipumps were filled with T4 or Tetrac dissolved in 0.05 N NaOH, 2% BSA and 100,000 cpm [^125I]T4 or [^125I]Tetrac as control of their secretion rates. The infusion lasted 13 days. 0, 1.5, 4.5, 13.5 and 40.5 nmol Tetrac/day/100 g or 0.5, 1.5, 4.5 and 13.5 nmol T4/day/100 g bodyweight (BW) (n=4/dose) were infused. An euthyroid control group was included. The animals were weighed every 2 days. Rats were sacrificed by decapitation and blood was collected and stored at […] until use. Tissues (liver, heart, brown adipose tissue, cerebral cortex and pituitary) were removed rapidly, frozen in liquid nitrogen and stored at […] until use.
(§2) Total RNA extraction and Northern Blot hybridization Total RNA was extracted with the method of Chomczynski and Sacchi (Chomczynski, P. and Sacchi, N. Anal. Biochem. (1987) 162: 156-159). […]
(§3) The amount of labeled mRNA was quantified by scanning laser densitometry (Phosphorimager, Molecular Dynamics; Sunnyvale, USA). Variations in RNA loading and membrane transfer were corrected by densitometric quantification of a negative photograph of 28S and 18S ribosomal RNA bands from ethidium bromide stained RNA gels. […]

Monodeiodinase type 1 = Monodeiodinase type 1 activity in liver and heart homogenates of infused rats; assay type: in vivo, rat; settings: Liver, infused rats, adjusted group mean at the mean Ln (TSH) concentration
Method: as §1
(§4) Monodeiodinase type 1 and 2 activities. Monodeiodinase type 1 and type 2 activities were determined in tissue homogenates by measuring the release of radioiodide from [^125I]rT3 according to the method of Leonard and Rosenberg (Leonard, J. L. et al. Endocrinology (1980) 106: 444-451).
(§5) Monodeiodinase type 1 activity was measured in liver homogenates using 1 μM rT3 and 1 mM DTT with 10 min of incubation, whereas for heart, 0.01 μM rT3 and 10 mM DTT with 1 hour of incubation. Monodeiodinase type 2 activity was measured in brown adipose tissue (BAT) and cerebral cortex using 1 nM rT3, 10 mM DTT and 1 mM propylthiouracil (PTU) with 1 hour of incubation. Protein concentrations were measured by the method of Bradford (Bio-Rad Laboratories GmbH, Munich, Germany) with bovine gammaglobulin as the protein standard. In order to study the effect of circulating Tetrac on the enzyme activities, 2 rats were injected intraperitoneally with 10 μCi ^125I Tetrac and killed 6 hours later. The tissue homogenates were extracted with 3 volumes of ethanol-NH3 (97:3). After 10 minutes centrifugation at 15,000 g, the supernatant was vacuum dried and applied to TLC (Merck 254, Toluol, acetic acid, water: 2:2:1). In order to calculate the tissue concentrations, the highest serum Tetrac levels were used (406 pmol/ml). The calculated tissue concentrations were: liver: 1.9, heart: 2.29 and brain cortex: 0.47 fluol Tetrac/μg protein.

Monodeiodinase type 2 = Monodeiodinase type 2 activity in brain cortex and brown adipose tissue of infused rats; assay type: in vivo, rat; settings: for Residual monodeiodinase type 2 activity, adjusted mean: infused rats, remaining activity, adjusted group mean at the mean Ln (TSH) concentration
Method: as §1, §4, §5

hypothyroid rats = test: Heart weight and heart/body weight in hypothyroid rats infused with Tetrac or T4; assay type: in vivo, rat; settings: hypothyroid rats, mean ± SEM; for Heart: continuous minipump infusion
Method: as §1

[1] = system: monodeiodinase type 1 mRNA; test: Northern blot, hepatic monodeiodinase type 1 mRNA; assay type: in vivo, rat; settings: Liver, infused rats, adjusted group mean at the mean Ln (TSH) concentration
Method: as §1, §2, §3

[2] = Serum T3, T4, Triac and Tetrac levels in infused rats; assay type: in vivo; settings: male, SIVZ, rat, intraperitoneal, mean ± SEM, read-out: Serum T4
Method: as §1
Hornone assays. Total serum T4, T3, Tetrac, Triac and TSH levels (intra-assay coefficient of variation 7 to 10%, inter-assay coefficient of variation 12 to 15%) were measured using the method of Burger, A., Sakoloff, C., Staeheli, V., Vallotton, M. D., and Ingbar, S. H. Acta. Endocrinol. (Copenh.) 80: 58-69 (1975). Serum TSH measurements were performed with reagents kindly provided by the National Pituitary Program, NIAMDD, NIH (Bethesda, USA). The detection limits were 0.80 ng TSH/ml; 9.5 pmol T4/ml; 0.16 pmol T3/ml; 10 pmol Tetrac/ml and 0.52 pmol Triac/ml.

TSH = test: Serum TSH in hypothyroid rats infused with Tetrac or T4; assay type: in vivo, rat; settings: for Serum TSH: hypothyroid rats, mean ± SEM
Method: Seventy-nine male SIVZ rats were purchased from the breeder (Institut für Labortierkunde des Universität Zürich, Zürich, Switzerland). […] The infusion lasted 13 days. […] An euthyroid control group was included. The animals were weighed every 2 days. Rats were sacrificed by decapitation and blood was collected and stored at […] until use. Tissues (liver, heart, brown adipose tissue, cerebral cortex and pituitary) were removed rapidly, frozen in liquid nitrogen and stored at […] until use.
Hornone assays. […] Endocrinol. […] Serum TSH measurements were performed with reagents kindly provided by the National Pituitary Program, NIAMDD, NIH (Bethesda, USA).

β-MHC mRNA = test: Northern blot, β-MHC mRNA in heart; assay type: in vivo, rat; settings: infused rats, adjusted group mean at the mean Ln (TSH) concentration
Method: as §1, §2, §3

GH mRNA = test: Northern blot, growth hormone mRNA in pituitary; assay type: in vivo, rat; settings: infused rats, adjusted group mean at the mean Ln (TSH) concentration
Method: as §1, §2, §3

[3] = Female, treatment period (3 weeks, 75 μg/kg/day i.m.)
[4] = Female, washout period (3 weeks)
[5] = Male, treatment period (3 weeks, 75 μg/kg/day i.m.)
[6] = infusion 13.5 nmol/day/100 g BW

Structure (SMILES): O=C(O)Cc1cc(I)c(Oc2cc(I)c(O)c(I)c2)c(I)c1 [Tetrac from Rhône-Poulenc, 3,3′,5,5′-tetraiodothyroacetic acid]
- Body weight gain (%) (Cynomologus monkeys; Female, treatment period): g (+8%)
- Food consumption 75%: days of observation/number of days in period (Cynomologus monkeys; Female, treatment period): 75%: 7/21
- Food consumption 100%: days of observation/number of days in period (Cynomologus monkeys; Female, treatment period): 100%: 14/21
- Body weight gain (Cynomologus monkeys; [3]): +300 g
- Food consumption 75%: days of observation/number of days in period (Cynomologus monkeys; Female, washout period): 75%: 5/21
- Food consumption 100%: days of observation/number of days in period (Cynomologus monkeys; Female, washout period): 100%: 16/21
- Body weight gain (Cynomologus monkeys; [4]): 0 g
- Body weight gain (%) (Cynomologus monkeys; Male, treatment period): g (+2%)
- Food consumption 75%: days of observation/number of days in period (Cynomologus monkeys; Male, treatment period): 75%: 1/21
- Food consumption 100%: days of observation/number of days in period (Cynomologus monkeys; Male, treatment period): 100%: 20/21
- Body weight gain (Cynomologus monkeys; [5]): +100 g
- Body weight gain (%) (Cynomologus monkeys; Male, washout period): g (+2%)
- Food consumption 100%: days of observation/number of days in period (Cynomologus monkeys; Male, washout period): 100%: 21/21
- Body weight gain (Cynomologus monkeys; Male, washout period (3 weeks)): +100 g

- concentration at 13 days ([2]; T4 infusion 0.5 nmol/day/100 g BW): 43.1 ± 2.8 nM
- concentration at 13 days ([2]; T4 infusion 1.5 nmol/day/100 g BW): 77.1 ± 9.4 nM
- concentration at 13 days ([2]; T4 infusion 4.5 nmol/day/100 g BW): 130 ± 9.5 nM
- concentration at 13 days ([2]; T4 infusion 13.5 nmol/day/100 g BW): 353 ± 31.7 nM
Structure (SMILES): N[C@@H](Cc1cc(I)c(Oc2cc(I)c(O)c(I)c2)c(I)c1)C(=O)O [T4, L-thyroxine, reference compound]
- α-MHC mRNA, T4/Tetrac (activity of T4 in % of Tetrac) (α-MHC mRNA): 21%
- α-MHC mRNA, adjusted mean (α-MHC mRNA; infused rats, adjusted group mean at the mean Ln (TSH) concentration): 1.13 arbitrary units
- Residual Monodeiodinase type 1 activity, adjusted mean (Monodeiodinase type 1): 180
- Residual monodeiodinase type 2 activity, T4/Tetrac (activity of T4 in % of Tetrac) (Monodeiodinase type 2; BAT): 42%
- Residual monodeiodinase type 2 activity, adjusted mean (Monodeiodinase type 2; BAT): 11.8
- Residual monodeiodinase type 2 activity, T4/Tetrac (activity of T4 in % of Tetrac) (Monodeiodinase type 2; Brain Cortex): 18%
- Residual monodeiodinase type 2 activity, adjusted mean (Monodeiodinase type 2; Brain Cortex): 5.02
- Heart (hypothyroid rats; 0.5 nmol/day/100 g BW): 0.86 ± 0.06 g
- Heart (hypothyroid rats; 1.5 nmol/day/100 g BW): 0.90 ± 0.04 g
- Heart (hypothyroid rats; 4.5 nmol/day/100 g BW): 1.19 ± 0.03 g
- Heart (hypothyroid rats; 13.5 nmol/day/100 g BW): 1.32 ± 0.11 g
- Heart/BW (%) (hypothyroid rats; infusion 0.5 nmol/day/100 g BW): 0.35 ± 0.02%
- Heart/BW (%) (hypothyroid rats; infusion 1.5 nmol/day/100 g BW): 0.34 ± 0.01%
- Heart/BW (%) (hypothyroid rats; infusion 4.5 nmol/day/100 g BW): 0.45 ± 0.02%
- Heart/BW (%) (hypothyroid rats; [6]): 0.54 ± 0.02%
- Residual Monodeiodinase type 1 mRNA, adjusted mean [1]: 5.1 arbitrary units
- Serum TSH (TSH; infusion 0.5 nmol/day/100 g BW): 110.2 ± 10.8 ng/mL
- Serum TSH (TSH; infusion 1.5 nmol/day/100 g BW): 11.8 ± 3.0 ng/mL
- Serum TSH (TSH; infusion 4.5 nmol/day/100 g BW): 1.0 ± 0.2 ng/mL
- Serum TSH (TSH; [6]): <0.8 ng/mL
- Serum TSH concentration, mean of treatment group (TSH; mean over all dose levels of the treated rats, p=<0.04): 31 ng/mL
- β-MHC mRNA, adjusted mean (β-MHC mRNA): 495 arbitrary units
- GH mRNA, adjusted mean (GH mRNA): 28644 arbitrary units

Structure (SMILES): O=C(O)Cc1cc(I)c(Oc2cc(I)c(O)c(I)c2)c(I)c1 [Tetrac from Henning Laboratory, 3,3′,5,5′-tetraiodothyroacetic acid]
- Body weight gain (%) (Cynomologus monkeys; Female, treatment period): g (+9%)
- Food consumption 75%: days of observation/number of days in period (Cynomologus monkeys; Female, treatment period): 75%: 13/21
- Food consumption 100%: days of observation/number of days in period (Cynomologus monkeys; Female, treatment period): 100%: 8/21
- Food consumption (in words) (Cynomologus monkeys; Female, treatment period): slightly lower food consumption
- Body weight gain (Cynomologus monkeys; [3]): +300 g
- Body weight gain (%) (Cynomologus monkeys; Female, washout period): g (+3%)
- Food consumption 75%: days of observation/number of days in period (Cynomologus monkeys; Female, washout period): 75%: 3/21
- Food consumption 100%: days of observation/number of days in period (Cynomologus monkeys; Female, washout period): 100%: 18/21
- Body weight gain (Cynomologus monkeys; [4]): +100 g
- Body weight gain (%) (Cynomologus monkeys; Male, treatment period): g (+3%)
- Food consumption 100%: days of observation/number of days in period (Cynomologus monkeys; Male, treatment period): 100%: 21/21
- Body weight gain (Cynomologus monkeys; [5]): +200 g
- Food consumption 100%: days of observation/number of days in period (Cynomologus monkeys; Male, washout period): 100%: 21/21
- Body weight gain (Cynomologus monkeys; Male, washout period (3 weeks)): 0 g
